Data from PubChem BioAssay (NCI).
Where “and” joins values, the source holds several entries; their conditions need not be identical. Identical values can stand only once.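 Test compounds were applied to cells in 96-well plates for 48 hours at 5 doses. At the GI50, growth is halved. TGI: concentration producing complete growth inhibition.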

What was measured:
Test in all cases: NCI-60 cell line screen, 48 h
SF-295 CNS = system: SF-295 CNS
786-0 renal = system: 786-0 renal
HCC-2998 colon = system: HCC-2998 colon
SK-MEL-5 melanoma = system: SK-MEL-5 melanoma
HT29 colon = system: HT29 colon
OVCAR-4 ovarian = system: OVCAR-4 ovarian
SNB-75 CNS = system: SNB-75 CNS
EKVX NSCLC = system: EKVX NSCLC
U251 CNS = system: U251 CNS
LOX IMVI melanoma = system: LOX IMVI melanoma

Compound	GI50 (SF-295 CNS) [µM]	TGI (SF-295 CNS) [µM]	GI50 (786-0 renal) [µM]	TGI (786-0 renal) [µM]	GI50 (HCC-2998 colon) [µM]	TGI (HCC-2998 colon) [µM]	GI50 (SK-MEL-5 melanoma)	TGI (SK-MEL-5 melanoma) [µM]	GI50 (HT29 colon)	TGI (HT29 colon) [µM]	GI50 (OVCAR-4 ovarian) [µM]	TGI (OVCAR-4 ovarian)	GI50 (SNB-75 CNS) [µM]	TGI (SNB-75 CNS) [µM]	GI50 (EKVX NSCLC) [µM]	TGI (EKVX NSCLC) [µM]	GI50 (U251 CNS) [µM]	TGI (U251 CNS) [µM]	GI50 (LOX IMVI melanoma) [µM]	TGI (LOX IMVI melanoma) [µM]
COc1ccc2c(c1)CC[C@@H]1[C@@H]2CC[C@]2(C)C(c3ccco3)=C(C=O)C[C@@H]12	3.4	12.8	23.1	55.5	6.78	26.3	5.72 µM	19	5.37 µM	> 100	20	> 100 µM	27.9	> 100	20.1	48.7	4.13	18.1	6.89	23.8
COc1ccccc1CNCCCN1C(=O)c2ccc3c4c(ccc(c24)C1=O)C(=O)N(CCCNCCCN)C3=O	0.45	4.61	0.712	7.18	0.35	1.98	0.482 µM	1.82	0.159 µM	1.54	0.847	2.67 µM	1.29	3.29	1.02	2.99	0.106	1.62	0.232	1.92
COC(=O)CCC/C=C\C[C@H]1C=CC(=O)/C1=C/C[C@@H](O)C/C=C\CC(F)(F)F	2.51	5.82	1.85	3.57	2	3.5	1.64 µM	3.05	1.89 µM	4.49	5.09	18.6 µM	12.4	29.3	4.04	14.6	1.79	4.32	0.243	0.668
COc1cc(-n2cc(-c3ccc(Cl)cc3)[nH]c2=O)cc(OC)c1OC	30.9	> 100	15.2	35.3	47.4	> 100	31.1 µM	> 100	43.8 µM	> 100	25.9	62.9 µM	26.2	50.5	34.1	> 100	20.9	45.1	59.9	> 100
N#Cc1ccnc(N2C(=O)CC[C@H]2C(=O)N(c2cncc(F)c2)[C@H](C(=O)NC2CC(F)(F)C2)c2ccccc2Cl)c1	> 100	> 100	> 100	> 100	> 100	> 100	> 100 µM	> 100	56.2 µM	> 100	39.1	> 100 µM	16.7	> 100	99.2	> 100	> 100	> 100	52.6	> 100
CC(C)(C)c1ccc(C(O)c2ccc(C(C)(C)C)cc2)cc1	–	27	–	29	–	35.6	–	30.4	–	22.3	–	28.5 µM	–	33.9	–	32.3	–	25.8	–	30.8
CC(C)=CC(=O)Cc1nc2cc(C)c(C)cc2[nH]c1=O	–	> 100	–	> 100	–	> 100	–	> 100	–	> 100	–	> 100 µM	–	> 100	–	> 100	–	> 100	–	> 100
COc1ccc(/C=C2\CCC(C)(CN(C)C)C2=O)cc1 (configuration not stated)	–	> 100	–	> 100	–	> 100	–	> 100	–	> 100	–	> 100 µM	–	> 100	–	> 100	–	> 100	–	> 100
C[C@H]1[C@H](C)CC[C@]2(C(=O)O)CC[C@]3(C)C(=CC[C@@H]4[C@@]5(C)C/C(=C/c6ccco6)C(=O)C(C)(C)[C@@H]5CC[C@]43C)[C@H]12	3.72	15.5	4.09	19.1	3.84	15.3	4.44 µM	15.6	5.3 µM	34.6	11.8	33.8 µM	18.6	71.8	3.69	15.4	4.27	17	4.51	17
CCOC(=O)c1cn(Cc2ccccc2)c(=O)n1Cc1ccccc1	–	> 100	–	> 100	–	> 100	–	> 100	–	> 100	–	> 100 µM	–	> 100	–	> 100	–	> 100	–	> 100
CCOC(=O)c1sc(=S)c2c(C(=O)OCC)c(C(=O)OCC)sc2c1C(=O)OCC	31.4	94.8	20.4	44.5	13.1	28.7	16.4 µM	32.9	28 µM	> 100	20.7	56.9 µM	40.3	> 100	21.5	43.4	12.7	26.5	14.1	27.9
CCCCCCCC[N+](C)(CCCCCCCC)CCCCCCCC	0.261	0.826	0.345	1.3	0.305	1.17	0.178 µM	0.344	0.295 µM	1.25	0.371	1.67 µM	0.489	1.42	0.19	0.788	0.324	1.31	0.247	0.709
COC(=O)C1=C(CO)C2C=CC1C2 (configuration not stated)	–	> 100	–	> 100	–	> 100	–	> 100	–	> 100	–	> 100 µM	–	> 100	–	> 100	–	> 100	–	> 100
CC1OC(OCC2COC(O)(Oc3c(-c4ccc(O)c(O)c4)oc4cc(O)cc(O)c4c3=O)C(O)C2O)C(O)C(O)C1O (configuration not stated)	–	> 100	–	> 100	–	> 100	–	> 100	–	> 100	–	> 100 µM	–	> 100	–	> 100	–	> 100	–	> 100
CSc1nc2sc3cc(Cl)ccc3n2c(=N)c1C#N	2.21	16.1	6.15	24	18.5	> 100	3.2 µM	> 25.9	5.35 µM	> 100	8.9	> 100 µM	2.27	> 69.6	10.7	> 100	> 55	> 100	> 74.4	> 100
NCCNC(=S)S	–	> 100	–	> 100	–	> 100	–	> 100	–	> 100	–	> 100 µM	–	> 100	–	> 100	–	> 100	–	> 100
NC1=N/C(=C2/CCNC(=O)c3[nH]c(Br)cc32)C(=O)N1	–	> 100	–	> 61.4	–	> 100	19.7 µM and 40.6 µM	> 100	27.2 µM and 67.7 µM	> 100	–	46.4 µM and 40.5 µM	–	> 91.5	–	> 100	–	> 100	–	> 62.1
Nc1ncnc2c1ncn2C1OC(CO)=CC1O (configuration not stated)	–	> 37.5	–	> 37.5	–	> 37.5	–	> 37.5	–	> 37.5	–	> 37.5 µM	–	> 37.5	–	> 37.5	–	> 37.5	–	> 37.5
CCn1cnc2c(Nc3cccc(Cl)c3)nc(N[C@@H]3CCCC[C@@H]3N)nc21	1.55	4.51	1.83	5.05	1.77	4.35	1.68 µM	3.11	1.91 µM	5.87	1.68	5.43 µM	0.745	2.23	1.6	3.92	1.37	3.3	1.24	2.57
CCOC(=O)c1sc(Nc2ccc(Cl)cc2)nc1C	1.69	3.57	1.55	3.14	1.75	3.34	1.44 µM	2.76	2.05 µM	4.09	2.04	19 µM	1.43	4.24	0.969	5.52	1.96	4.3	1.49	2.86
Cc1cc(Cl)cc2c1NC(=O)C2(O)C(C)C(=O)c1ccc(Cl)cc1 (configuration not stated)	–	> 100	–	> 100	–	> 100	–	> 64.7	–	> 100	–	62.1 µM	–	> 100	–	> 100	–	> 100	–	> 100
N#CCCN(c1ccc(-c2nnc(NC(=O)CNNC(=O)CC(=O)Nc3ccccc3)s2)cc1)S(=O)(=O)c1ccccc1	–	> 100	–	> 100	–	> 100	–	> 100	–	> 100	–	> 100 µM	–	> 100	–	> 100	–	> 100	–	> 100
NC(=S)N/N=C1/C(=O)N(c2ccc(Cl)cc2Cl)C(=O)C(=O)C1c1nc2ccccc2s1 (configuration not stated)	–	> 100	–	> 100	–	> 100	–	> 100	–	> 100	–	> 100 µM	–	> 100	–	> 100	–	> 100	–	> 100
